From PMC9425781, “Targeting integrin αvβ6 with gallium-68 tris (hydroxypyridinone) based PET probes” (Dalton Transactions (Cambridge, England : 2003), 2022)

What was measured:
[1] = molecular target: T1, integrin αvβ6 (pancreatic cancer BxPC-3 cells) (Homo sapiens, UniProt P06756+P18564); test: Competitive binding assay (gamma counting, unlabelled THP-peptide vs [68Ga]Ga-labelled peptide) on BxPC-3 cells; type: cell-based; settings: for Span (best-fit value): Std. Error 0.01175 (11), 0.04901 (12), 95% CI 0.04041 to 0.08849 (11), 0.1021 to 0.3002 (12); for log IC50: non-linear regression, GraphPad Prism 9, inhibitor 0.1-5000 nM, 1 h, 37 °C, n = 4, value ± as printed in method; for LogIC50 (best-fit value): Std. Error 0.1982 (11), 0.2904 (12), 95% CI -7.123 to -6.312 (11), -7.167 to -5.993 (12); for HillSlope (best-fit value): Std. Error 0.5820 (11), 0.3994 (12), 95% CI -2.429 to -0.04897 (11), -1.659 to -0.04442 (12)
T1 construct: endogenous in cells; host or cells: BxPC-3 pancreatic cancer cells
T1 sequence (P06756 31-889 limits assumed): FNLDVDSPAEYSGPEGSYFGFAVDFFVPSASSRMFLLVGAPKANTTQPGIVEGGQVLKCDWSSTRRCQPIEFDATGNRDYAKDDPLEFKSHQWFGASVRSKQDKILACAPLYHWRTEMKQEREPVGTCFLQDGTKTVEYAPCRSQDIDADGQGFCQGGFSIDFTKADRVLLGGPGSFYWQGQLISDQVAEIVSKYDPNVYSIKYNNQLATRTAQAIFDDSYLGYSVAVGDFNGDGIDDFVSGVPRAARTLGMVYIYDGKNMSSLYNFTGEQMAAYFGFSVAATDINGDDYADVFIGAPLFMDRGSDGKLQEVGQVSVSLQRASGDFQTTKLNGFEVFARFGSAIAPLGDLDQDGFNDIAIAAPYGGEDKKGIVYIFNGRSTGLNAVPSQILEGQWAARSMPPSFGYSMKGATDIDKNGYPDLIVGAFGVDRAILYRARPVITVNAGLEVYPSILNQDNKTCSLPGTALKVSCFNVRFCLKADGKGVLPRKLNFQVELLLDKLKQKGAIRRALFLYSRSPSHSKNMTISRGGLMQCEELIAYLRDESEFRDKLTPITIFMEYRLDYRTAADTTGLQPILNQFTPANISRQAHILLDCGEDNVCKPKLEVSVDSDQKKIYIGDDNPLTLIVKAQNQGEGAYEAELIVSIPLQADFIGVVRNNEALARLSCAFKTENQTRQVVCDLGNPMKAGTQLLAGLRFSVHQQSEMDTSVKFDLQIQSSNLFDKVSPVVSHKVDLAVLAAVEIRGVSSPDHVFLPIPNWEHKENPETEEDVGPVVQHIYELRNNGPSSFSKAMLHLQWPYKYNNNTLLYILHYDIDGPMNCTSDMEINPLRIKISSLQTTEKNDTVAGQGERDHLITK
T1 sequence (P06756 891-1048 partner limits assumed): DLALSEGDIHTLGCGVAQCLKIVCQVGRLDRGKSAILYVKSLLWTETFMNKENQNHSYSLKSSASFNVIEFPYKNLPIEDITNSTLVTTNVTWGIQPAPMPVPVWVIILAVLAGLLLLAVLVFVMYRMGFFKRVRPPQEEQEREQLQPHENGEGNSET
T1 sequence (P18564 22-788): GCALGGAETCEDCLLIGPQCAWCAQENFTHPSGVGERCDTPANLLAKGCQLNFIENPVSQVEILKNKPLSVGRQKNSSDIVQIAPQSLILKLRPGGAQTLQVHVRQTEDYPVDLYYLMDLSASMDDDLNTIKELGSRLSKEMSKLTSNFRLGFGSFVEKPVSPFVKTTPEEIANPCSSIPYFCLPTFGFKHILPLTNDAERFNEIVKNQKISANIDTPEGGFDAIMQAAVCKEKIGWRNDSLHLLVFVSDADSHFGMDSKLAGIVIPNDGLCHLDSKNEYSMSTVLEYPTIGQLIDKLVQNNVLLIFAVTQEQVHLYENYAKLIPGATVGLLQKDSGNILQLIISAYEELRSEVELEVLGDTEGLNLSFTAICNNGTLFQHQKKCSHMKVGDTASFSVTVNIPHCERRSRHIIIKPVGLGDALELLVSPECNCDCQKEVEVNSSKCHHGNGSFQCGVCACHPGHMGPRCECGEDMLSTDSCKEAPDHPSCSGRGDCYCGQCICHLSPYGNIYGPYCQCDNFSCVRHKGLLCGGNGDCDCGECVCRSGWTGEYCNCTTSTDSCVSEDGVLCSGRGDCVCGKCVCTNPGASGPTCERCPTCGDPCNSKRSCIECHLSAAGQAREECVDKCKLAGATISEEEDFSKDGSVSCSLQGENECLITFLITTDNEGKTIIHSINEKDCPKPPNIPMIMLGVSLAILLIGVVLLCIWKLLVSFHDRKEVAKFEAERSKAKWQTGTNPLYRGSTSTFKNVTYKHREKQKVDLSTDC
Protocol: Binding of [^68Ga]Ga-Integrin αvβ6-peptide-THP (11 and 12) to αvβ6 integrin was determined in the presence of increasing concentrations of unlabelled THP-peptide conjugate (Fig. 4).
BxPC-3 were plated in 12-well plates at a density of 5 × 10^5 cells per well in 1 mL of complete culture medium, cultured overnight at 37 °C and 5% CO2. Radiolabelling with ^68Ga was done as described above, and a solution containing 15 MBq in 1.0 mL was prepared by dilution with distilled H2O. Eleven inhibitor (unlabelled peptide) concentrations were tested to estimate the IC50 value at 0.1, 0.5, 1, 5, 10, 50, 100, 250, 500, 1000, and 5000 nM. Four wells were used for each concentration (n = 4), prepared in 500 μL of complete media. Following the addition of the inhibitor, 20 μL of the radiolabelled peptide solution was added to each well, corresponding to 300 kbq per well (33 nM of the labelled peptide per well). The cells were then incubated for an hour at the same above-mentioned conditions. Following incubation, media were removed from the wells, and the cells were washed twice with cold PBS (500 μL per washing). For each well, the media and the washings were collected together. After the second wash, 500 μL of 1 M NaOH solution was added to each well to lyse the cells, and cell lysates were retrieved 10 minutes later ([…]). A final wash with PBS (500 μL per well) was undertaken and collected in the same tube as the cell lysate. All tubes (containing either medium and washings or lysate and washings) were gamma-counted using a Wallac 1282 Compugamma Universal Gamma Counter. The resulting values were analyzed using Graphpad Prism 9 software, and a non-linear regression curve was generated, from which the IC50 values (log IC50: −6.72 ± 0.20 for 11 and −6.58 ± 0.29 for 12) were obtained.

αvβ6 = settings: cited from earlier work
From the text: The two molecules 6 and 7 were conjugated to the nonapeptide cyclo-(FRGDLAFp(NMe)K)[29] (p = D-Pro; (NMe)K = N-methyl-Lys) under mild conditions, without the assistance of any activation agent, producing the two conjugates (11 and 12, Fig. 3). Noteworthy, the arginine-glycine-aspartate (RGD) sequence in cyclic peptides is known to selectively bind αv integrins. […] Moreover, the presence of the two non-proteinogenic amino acids, na ...

[2] = binding curve, nonlinear regression

| Substance | Top (best-fit value) ([1]; binding curve, nonlinear regression, Std. Error 0.004453 (11), 0.01334 (12), 95% CI 0.1175 to 0.1358 (11), 0.2906 to 0.3446 (12)) | Bottom (best-fit value) ([1]; binding curve, nonlinear regression, Std. Error 0.01017 (11), 0.04302 (12), 95% CI 0.04141 to 0.08300 (11), 0.02951 to 0.2034 (12)) | Span (best-fit value) [1, 2] | log IC50 [1] | LogIC50 (best-fit value) ([1]; nonlinear regression) | HillSlope (best-fit value) ([1]; nonlinear regression) | potency and selectivity for αvβ6 (in words) (αvβ6) | IC50 (αvβ6; αvβ6) [pM] |
| --- | --- | --- | --- | --- | --- | --- | --- | --- |
| cyclo-(FRGDLAFp(NMe)K)-THPs (head to tail) [compound 12, cyclo-(FRGDLAFp(NMe)K) conjugated to THP-adipic (7)] | 0.3176 | 0.1165 | 0.2012 | −6.58 ± 0.29 | -6.580 | -0.8516 | – | – |
| cyclo-(FRGDLAFp(NMe)K) (head to tail) [compound 10] | – | – | – | – | – | – | potent and selective binder for αvβ6 | 260 |
| cyclo-(FRGDLAFp(NMe)K)-THPs (head to tail) [compound 11, cyclo-(FRGDLAFp(NMe)K) conjugated to THP-glutaric (6)] | – | – | 0.06445 | −6.72 ± 0.20 | -6.717 | -1.239 | – | – |
